The target in assay [1] is T1, Peroxisome proliferator-activated receptor gamma (Homo sapiens, UniProt P37231).
T1 sequence (P37231 whole entry): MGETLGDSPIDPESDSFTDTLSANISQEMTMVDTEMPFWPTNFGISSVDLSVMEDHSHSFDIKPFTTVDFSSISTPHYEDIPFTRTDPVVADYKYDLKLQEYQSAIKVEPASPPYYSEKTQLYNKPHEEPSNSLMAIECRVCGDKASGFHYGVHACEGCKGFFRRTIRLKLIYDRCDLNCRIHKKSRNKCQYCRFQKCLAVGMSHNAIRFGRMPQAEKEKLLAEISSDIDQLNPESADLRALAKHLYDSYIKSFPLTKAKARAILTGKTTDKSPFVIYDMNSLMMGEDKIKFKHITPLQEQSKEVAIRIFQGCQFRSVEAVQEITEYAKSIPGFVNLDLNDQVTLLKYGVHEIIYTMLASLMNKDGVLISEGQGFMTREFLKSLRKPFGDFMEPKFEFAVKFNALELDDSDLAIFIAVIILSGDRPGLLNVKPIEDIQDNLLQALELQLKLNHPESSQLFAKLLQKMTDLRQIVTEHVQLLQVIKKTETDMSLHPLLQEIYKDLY
Description: Binding affinity to PPARgamma (unknown origin) using fluorescein-tagged dual PPARalpha/gamma activator by homogeneous fluorescence polarization binding assay

In assay [2] the target is T2, Peroxisome proliferator-activated receptor alpha (Homo sapiens, UniProt Q07869).
T2 sequence (Q07869 whole entry): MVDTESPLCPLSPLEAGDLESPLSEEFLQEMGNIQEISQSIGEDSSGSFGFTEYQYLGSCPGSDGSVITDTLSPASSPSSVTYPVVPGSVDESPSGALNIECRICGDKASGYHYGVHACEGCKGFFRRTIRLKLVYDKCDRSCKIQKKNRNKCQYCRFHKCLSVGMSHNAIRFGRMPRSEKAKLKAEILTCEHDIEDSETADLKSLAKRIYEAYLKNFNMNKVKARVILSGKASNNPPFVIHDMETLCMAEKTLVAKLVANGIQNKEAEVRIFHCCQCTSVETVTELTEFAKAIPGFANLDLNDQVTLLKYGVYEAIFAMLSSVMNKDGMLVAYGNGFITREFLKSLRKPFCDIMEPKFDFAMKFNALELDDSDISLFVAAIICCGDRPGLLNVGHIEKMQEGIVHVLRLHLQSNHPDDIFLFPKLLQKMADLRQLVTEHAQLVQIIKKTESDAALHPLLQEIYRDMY
The experiment in a line: Binding affinity to PPARalpha (unknown origin) using fluorescein-tagged dual PPARalpha/gamma activator by homogeneous fluorescence polarization binding assay. A general note: Fluorescence polarisation rises when a labelled molecule tumbles more slowly, as on binding a larger partner.

Assay [3] deals with T1, Peroxisome proliferator-activated receptor gamma. Put plainly: Agonist activity at GAL4 tagged human PPARgamma ligand binding domain expressed in HEK293 cells by luciferase reporter gene assay. The format is cell-based.
The target in assay [4] is T2, Peroxisome proliferator-activated receptor alpha. The experiment in a line: Agonist activity at GAL4 tagged human PPARalpha ligand binding domain expressed in HEK293 cells by luciferase reporter gene assay. The format is cell-based. The conditions noted are these: for pEC50: read-out: EC50. (Reporter assays use an easily measured gene product as a stand-in for the process of interest.)

Structures are written as SMILES. pEC50, pIC50: −log10 of the molar value.

A word on the pIC50: it is −log10 of the IC50, conventionally taken in molar units. A higher pIC50 goes with a low IC50. Usually pEC50 stands for the negative decadic logarithm of the EC50, by convention in mol/L. On to `Cc1oc(-c2ccccc2)nc1CCOc1cccc(C[C@H]2CN(c3ccccc3)C[C@H]2C(=O)O)c1`, for which the negative logarithm of the IC50 (pIC50) was 6.85 in assay [1] and 6.49 in assay [2]. The pEC50 in assay [3] was under 5.00; in assay [4] it was 6.17.

Regarding `Cc1oc(-c2ccccc2)nc1CCOc1cccc(C[C@@H]2CN(C(=O)Oc3ccccc3)C[C@@H]2C(=O)O)c1` (racemic), the pIC50 in assay [1] is 5.88; in assay [2] it was 6.66. For the same molecule, the results for the pEC50 in assay [3] and in assay [4] were 5.90 and 8.00, respectively.

Regarding `CCOC(=O)N1C[C@H](C(=O)O)[C@H](c2ccc(OCCc3nc(-c4ccccc4)oc3C)cc2)C1` (racemic), the negative-log IC50 (pIC50) in assay [1] and in assay [2] was under 5.00 each time. The negative logarithm of the EC50 (pEC50) in assay [3] was under 4.49; in assay [4], under 4.82.

Regarding `CCOC(=O)N1C[C@H](CC(=O)O)[C@H](c2ccc(OCCc3nc(-c4ccccc4)oc3C)cc2)C1` (racemic), the negative-log IC50 (pIC50) in assay [1] and in assay [2] was under 5.00 in each case.

Regarding `Cc1oc(-c2ccccc2)nc1CCOc1cccc(C[C@H]2CN(C(=O)Oc3ccccc3)C[C@H]2C(=O)O)c1`, the pIC50 was 6.23 in assay [1] and 6.18 in assay [2]. Besides, the pEC50 in assay [3] is 4.88; in assay [4], 6.02.

As for `CCOC(=O)N1C[C@H](CC(=O)O)[C@@H](c2cccc(OCCc3nc(-c4ccccc4)oc3C)c2)C1` (racemic), the figures for the pIC50 in assay [1] and in assay [2] were 5.26 and under 5.00, respectively. The pEC50 was 5.01 in assay [3] and 5.09 in assay [4].

On to `Cc1oc(-c2ccccc2)nc1CCOc1cccc(C[C@H]2CN(C(=O)Oc3ccccc3)C[C@@H]2CC(=O)O)c1` (racemic), for which the pIC50 in assay [1] was 6.68; in assay [2] it was 5.51. In addition, the pEC50 in assay [3] is under 5.00; in assay [4], 6.07.

As for `Cc1oc(-c2ccccc2)nc1CCOc1cccc(CC[C@H]2CN(C(=O)Oc3ccccc3)C[C@@H]2C(=O)O)c1` (racemic), the negative-log IC50 (pIC50) in assay [1] was 6.28; in assay [2], under 5.00. Moreover, the pEC50 is 5.93 in assay [3] and 5.59 in assay [4].

Take `Cc1oc(-c2ccccc2)nc1CCOc1cccc(CC[C@@H]2CN(C(=O)Oc3ccccc3)C[C@@H]2C(=O)O)c1` (racemic): the pIC50 is 6.68 in assay [1] and 5.97 in assay [2]. For the same molecule, the figures for the pEC50 in assay [3] and in assay [4] were 6.20 and 8.10, respectively.

`Cc1oc(-c2ccccc2)nc1CCOc1cccc([C@@H]2CN(C(=O)Oc3ccccc3)C[C@@H]2C(=O)O)c1` (racemic): the negative logarithm of the IC50 (pIC50) in assay [1] and in assay [2] was under 5.00 in each case. The pEC50 was 5.25 in assay [3] and 5.78 in assay [4].

`Cc1ccnc(N2C[C@@H](Cc3ccc(OCCc4nc(-c5ccccc5)oc4C)cc3)[C@@H](C(=O)O)C2)n1` (racemic): the negative-log IC50 (pIC50) in assay [1] was 6.35; in assay [2] it was 5.40. For the same molecule, the figures for the negative-log EC50 (pEC50) in assay [3] and in assay [4] were 6.20 and 6.77, respectively.

For `Cc1oc(-c2ccccc2)nc1CCOc1cccc([C@@H]2CN(C(=O)Oc3ccccc3)C[C@@H]2CC(=O)O)c1` (racemic), the pIC50 in assay [1] is 6.62; in assay [2], 5.40. Also, the pEC50 in assay [3] is 5.32; in assay [4], 5.45.

For `CCOC(=O)N1C[C@H](C(=O)O)[C@@H](c2ccc(OCCc3nc(-c4ccccc4)oc3C)cc2)C1` (racemic), the negative-log IC50 (pIC50) in assay [1] and in assay [2] was under 5.00 throughout. For the same molecule, the pEC50 in assay [3] is under 4.49; in assay [4] it was under 4.82.

For `Cc1oc(-c2ccccc2)nc1CCOc1ccc(C[C@@H]2CN(c3nc4ccccc4o3)C[C@@H]2C(=O)O)cc1` (racemic), the values for the negative logarithm of the IC50 (pIC50) in assay [1] and in assay [2] were 6.23 and 5.66, respectively. In addition, the values for the negative logarithm of the EC50 (pEC50) in assay [3] and in assay [4] were 5.68 and 5.61, respectively.

In assay [2], `CCOC(=O)N1C[C@H](CC(=O)O)[C@@H](Cc2cccc(OCCc3nc(-c4ccccc4)oc3C)c2)C1` (racemic) showed a pIC50 of 5.67. The pEC50 in assay [3] was under 5.00; in assay [4], 8.22.

In the case of `Cc1oc(-c2ccccc2)nc1CCOc1ccc(C[C@@H]2CN(c3nccc(C(F)(F)F)n3)C[C@@H]2C(=O)O)cc1` (racemic), the results for the pIC50 in assay [1] and in assay [2] were 7.52 and 6.13, respectively. Further, the pEC50 in assay [3] was 7.30; in assay [4] it was 7.52.

On to `CCOC(=O)N1C[C@@H](Cc2cccc(OCCc3nc(-c4ccccc4)oc3C)c2)[C@@H](CC(=O)O)C1`, for which the pIC50 in assay [2] was 5.26. The values for the pEC50 in assay [3] and in assay [4] were under 5.00 and 5.54, respectively.

Consider `CCOC(=O)N1C[C@@H](Cc2cccc(OCCc3nc(-c4ccccc4)oc3C)c2)[C@@H](C(=O)O)C1` (racemic), for which the pIC50 in assay [2] was 6.77. The negative logarithm of the EC50 (pEC50) in assay [3] was 6.12; in assay [4], 8.00.

As to `CCOC(=O)N1C[C@H](C(=O)O)[C@H](c2cccc(OCCc3nc(-c4ccccc4)oc3C)c2)C1` (racemic), the pIC50 in assay [1] and in assay [2] was under 5.00 in each case. Moreover, the negative logarithm of the EC50 (pEC50) in assay [3] was 4.62; in assay [4] it was 4.70.

Take `Cc1oc(-c2ccccc2)nc1CCOc1ccc(C[C@@H]2CN(c3nccc(C(F)(F)F)n3)C[C@H]2C(=O)O)cc1`: the figures for the pIC50 in assay [1] and in assay [2] were 5.94 and under 4.30, respectively. Besides, the results for the pEC50 in assay [3] and in assay [4] were under 4.52 and 5.36, respectively.

Regarding `Cc1oc(-c2ccccc2)nc1CCOc1ccc([C@@H]2CN(C(=O)Oc3ccccc3)C[C@@H]2CC(=O)O)cc1` (racemic), the pIC50 is 5.08 in assay [1] and under 4.82 in assay [2]. Further, the values for the negative logarithm of the EC50 (pEC50) in assay [3] and in assay [4] were 5.38 and under 4.82, respectively.

As to `Cc1oc(-c2ccccc2)nc1CCOc1ccc(CC[C@@H]2CN(C(=O)Oc3ccccc3)C[C@@H]2C(=O)O)cc1` (racemic), the negative-log IC50 (pIC50) is 7.05 in assay [1] and 6.32 in assay [2]. The negative logarithm of the EC50 (pEC50) in assay [3] was 6.80; in assay [4], 8.00.

As to `Cc1oc(-c2ccccc2)nc1CCOc1ccc(CC[C@H]2CN(C(=O)Oc3ccccc3)C[C@@H]2C(=O)O)cc1` (racemic), the pIC50 in assay [1] was 6.47; in assay [2] it was 5.49. For the same molecule, the results for the negative logarithm of the EC50 (pEC50) in assay [3] and in assay [4] were under 5.00 and 6.01, respectively.

Turning to `Cc1oc(-c2ccccc2)nc1CCOc1ccc(C[C@@H]2CN(c3nc(C(F)(F)F)co3)C[C@@H]2C(=O)O)cc1` (racemic), the values for the negative-log IC50 (pIC50) in assay [1] and in assay [2] were 7.30 and 5.30, respectively. The negative-log EC50 (pEC50) is under 4.52 in assay [3] and 5.83 in assay [4].

Take `Cc1oc(-c2ccccc2)nc1CCOc1cccc(C[C@H]2CN(c3nccc(C(F)(F)F)n3)C[C@H]2C(=O)O)c1`: the negative logarithm of the IC50 (pIC50) in assay [1] was 6.96; in assay [2], 5.95. Further, the negative logarithm of the EC50 (pEC50) in assay [3] and in assay [4] was under 5.00 throughout.

Take `Cc1oc(-c2ccccc2)nc1CCOc1ccc(C[C@@H]2CN(c3ncccn3)C[C@@H]2C(=O)O)cc1` (racemic): the pIC50 was 5.69 in assay [1] and under 5.00 in assay [2]. For the same molecule, the pEC50 in assay [3] was 5.97; in assay [4] it was 5.54.

`CCOC(=O)N1C[C@H](Cc2cccc(OCCc3nc(-c4ccccc4)oc3C)c2)[C@@H](C(=O)O)C1` (racemic) showed a pIC50 in assay [2] of 5.67. In addition, the results for the negative-log EC50 (pEC50) in assay [3] and in assay [4] were 5.55 and 6.82, respectively.

Take `Cc1oc(-c2ccccc2)nc1CCOc1ccc(C[C@H]2CN(c3nccc(C(F)(F)F)n3)C[C@H]2C(=O)O)cc1`: the negative-log IC50 (pIC50) in assay [1] was 5.82; in assay [2], under 5.00. In addition, the negative-log EC50 (pEC50) in assay [3] and in assay [4] was under 5.00 throughout.

With `CCOC(=O)N1C[C@H](CCc2ccc(OCCc3nc(-c4ccccc4)oc3C)cc2)[C@@H](C(=O)O)C1` (racemic), the figures for the negative-log IC50 (pIC50) in assay [1] and in assay [2] were 5.80 and 5.74, respectively. Further, the results for the pEC50 in assay [3] and in assay [4] were under 5.00 and 8.00, respectively.

In the case of `Cc1oc(-c2ccccc2)nc1CCOc1cccc(C[C@@H]2CN(c3ccccc3)C[C@@H]2C(=O)O)c1`, the figures for the negative logarithm of the IC50 (pIC50) in assay [1] and in assay [2] were 7.10 and 7.15, respectively. The negative logarithm of the EC50 (pEC50) in assay [3] is 5.46; in assay [4], 7.30.

Consider `CCOC(=O)N1C[C@H](Cc2cccc(OCCc3nc(-c4ccccc4)oc3C)c2)[C@H](C(=O)O)C1`, for which, in assay [2], the pIC50 is under 5.00. Further, the negative logarithm of the EC50 (pEC50) in assay [3] is under 5.00; in assay [4], 4.96.

With `COc1ccc(OC(=O)N2[C@H](C(=O)O)CC[C@H]2c2ccc(OCCc3nc(-c4ccccc4)oc3C)cc2)cc1`, in assay [3], the pEC50 was 7.30. Besides, the EC50 entry in assay [4] (hek293) is “Not Active”.

In assay [2], `CCOC(=O)N1C[C@@H](Cc2cccc(OCCc3nc(-c4ccccc4)oc3C)c2)[C@@H](C(=O)O)C1` gave a pIC50 of 6.59. Moreover, the negative logarithm of the EC50 (pEC50) in assay [3] was 8.05; in assay [4], 8.52.

These data come from ChEMBL document CHEMBL3396995, “Synthesis and biological evaluation of novel pyrrolidine acid analogs as potent dual PPARα/γ agonists” (Bioorg Med Chem Lett, 2015).
